Details: Liquid; for viscosity: Falling or rolling sphere viscometry; for mass density: Constant-volume piezometry

CCCCn1cc[n+](C)c1.F[P-](F)(F)(F)(F)F [1-butyl-3-methylimidazolium hexafluorophosphate]
Details | mass density, 293.15 K [kg/m3] | mass density, 313.15 K [kg/m3] | mass density, 333.15 K [kg/m3] | mass density, 353.15 K [kg/m3] | viscosity, 293.15 K [mPa·s] | viscosity, 313.15 K [mPa·s] | viscosity, 333.15 K [mPa·s] | viscosity, 353.15 K [mPa·s]
100 kPa | – | – | – | – | 395 | – | – | –
15000 kPa | 1377 | 1362 | 1346 | 1330 | 468 | 140 | 61 | 29.3
20000 kPa | 1379 | 1364 | 1349 | 1332 | 504 | 151 | 63.2 | 30.5

From the NIST ThermoML archive (doi:10.1021/je700022b)
